From the supplement of paper PMC11208160

Test: recombinant UMI read abundance after kanamycin selection (control-corrected) (log10(CPM+1)); higher = more efficient recombination; extreme values may be limits of the assay; sequences stand for … in AGTGCAGAGAAAATCGGCCAGTTTTCTCTGCCTGCAGTCCGCATGCCGTGGGACCCCTTGGGTTCTAACCTGTTGCCTAGATTTATGCAGCGGACTGCCTTTCTCCCAAAGTGATAAACCGG…AGGTTGGTTTCACT; site = the 11-nt donor
How it was run: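 Each donor and donor-binding-loop pair was tracked by a 12-nt UMI on a plasmid carrying a promoterless kanamycin gene. With a second plasmid supplying a fixed target and T7-inducible IS621 bridge recombinase, the pool was plated in Escherichia coli on IPTG (0.07 mM) plus kanamycin or unselected. Sequencing of recombinant UMIs across the donor–target junction gave counts expressed as log10(CPM+1) after replicate averaging and control-derived scaling.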
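Further: IS621 bridge recombinase in Escherichia coli cells against a fixed T5 target plasmid.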

Question: Which “recombinant UMI read abundance (log10)” value does the source give for “ACTAATACATGGACCGGTTTTCCCGGTAATCCGTATTTGGC (site TCTAATACTGC)” here?
Answer: 1.03

Question: With “ACTACAACATGGACCGGTTTTCCCGGTAATCCGTATTTGTG (site ACTACAACTCA)” as the sequence, how does the “recombinant UMI read abundance (log10)” value read?
Answer: 0.339

Question: With “ACTACTGCATGGACCGGTTTTCCCGGTAATCCGTATTTGGT (site ACTAATGCTAC)” as the sequence, how does the “recombinant UMI read abundance (log10)” value read?
Answer: 0.0144

Question: Which “recombinant UMI read abundance (log10)” value does the source give for “ACTACTGCATGGACCGGTTTTCCCGGTAATCCGTATTTGGT (site ACTACTGCTAC)” here?
Answer: 0.247

Question: With “ACTACTGCATGGACCGGTTTTCCCGGTAATCCGTATTTGGT (site ACTAGTGCTAC)” as the sequence, how does the “recombinant UMI read abundance (log10)” value read?
Answer: 0.0166

Question: Which “recombinant UMI read abundance (log10)” value does the source give for “ACTACTGCATGGACCGGTTTTCCCGGTAATCCGTATTTGGT (site ACTATTGCTAC)” here?
Answer: 0.00304

Question: For “ACTAGCACATGGACCGGTTTTCCCGGTAATCCGTATTTGAG (site ACTAGAACTCT)”, which “recombinant UMI read abundance (log10)” value is on record?
Answer: 0.495

Question: For “ACTAGCACATGGACCGGTTTTCCCGGTAATCCGTATTTGAG (site ACTAGCACTCT)”, which “recombinant UMI read abundance (log10)” value is on record?
Answer: 1.48

Question: Which “recombinant UMI read abundance (log10)” value does the source give for “ACTAGCACATGGACCGGTTTTCCCGGTAATCCGTATTTGAG (site ACTAGGACTCT)” here?
Answer: 0.0266

Question: For “ACTAGCACATGGACCGGTTTTCCCGGTAATCCGTATTTGAG (site ACTAGTACTCT)”, which “recombinant UMI read abundance (log10)” value is on record?
Answer: 0.517

Question: With “ACTAGCTCATGGACCGGTTTTCCCGGTAATCCGTATTTGTT (site ACTAGCTCTAA)” as the sequence, how does the “recombinant UMI read abundance (log10)” value read?
Answer: 0.346

Question: Which “recombinant UMI read abundance (log10)” value does the source give for “ACTAGGACATGGACCGGTTTTCCCGGTAATCCGTATTTGCT (site ACTAGGACTAG)” here?
Answer: 2.36

Question: For “ACTAGGGCATGGACCGGTTTTCCCGGTAATCCGTATTTGAG (site ACTAGGGCTCT)”, which “recombinant UMI read abundance (log10)” value is on record?
Answer: 1.52

Question: With “ACTAGTGCATGGACCGGTTTTCCCGGTAATCCGTATTTGAT (site ACTAGTGCTAA)” as the sequence, how does the “recombinant UMI read abundance (log10)” value read?
Answer: 0.0209

Question: With “ACTAGTGCATGGACCGGTTTTCCCGGTAATCCGTATTTGAT (site ACTAGTGCTAC)” as the sequence, how does the “recombinant UMI read abundance (log10)” value read?
Answer: 0.0203

Question: For “ACTAGTGCATGGACCGGTTTTCCCGGTAATCCGTATTTGAT (site ACTAGTGCTAG)”, which “recombinant UMI read abundance (log10)” value is on record?
Answer: 0.00388

Question: With “ACTAGTGCATGGACCGGTTTTCCCGGTAATCCGTATTTGAT (site ACTAGTGCTAT)” as the sequence, how does the “recombinant UMI read abundance (log10)” value read?
Answer: 2.1

Question: With “ACTAGTGCATGGACCGGTTTTCCCGGTAATCCGTATTTGCT (site ACTAGTGCTAA)” as the sequence, how does the “recombinant UMI read abundance (log10)” value read?
Answer: 0.335

Question: With “ACTAGTGCATGGACCGGTTTTCCCGGTAATCCGTATTTGCT (site ACTAGTGCTAC)” as the sequence, how does the “recombinant UMI read abundance (log10)” value read?
Answer: 0.00908

Question: Which “recombinant UMI read abundance (log10)” value does the source give for “ACTAGTGCATGGACCGGTTTTCCCGGTAATCCGTATTTGCT (site ACTAGTGCTAG)” here?
Answer: 1.37

Question: For “ACTAGTGCATGGACCGGTTTTCCCGGTAATCCGTATTTGCT (site ACTAGTGCTAT)”, which “recombinant UMI read abundance (log10)” value is on record?
Answer: 0.0101

Question: For “ACTATTCCATGGACCGGTTTTCCCGGTAATCCGTATTTGGT (site ACTATTCCTAC)”, which “recombinant UMI read abundance (log10)” value is on record?
Answer: 0.00382

Question: Which “recombinant UMI read abundance (log10)” value does the source give for “ACTCAACCATGGACCGGTTTTCCCGGTAATCCGTATTTGGT (site ACTCAACCTAC)” here?
Answer: 0.00884

Question: Which “recombinant UMI read abundance (log10)” value does the source give for “ACTCCGCCATGGACCGGTTTTCCCGGTAATCCGTATTTGTG (site ACTCCGCCTCA)” here?
Answer: 0.0108

Question: Which “recombinant UMI read abundance (log10)” value does the source give for “ACTCCGTCATGGACCGGTTTTCCCGGTAATCCGTATTTGAT (site ACTCCGTCTAT)” here?
Answer: 0.697

Question: Which “recombinant UMI read abundance (log10)” value does the source give for “ACTCGCACATGGACCGGTTTTCCCGGTAATCCGTATTTGAC (site ACTCGCACTGT)” here?
Answer: 2.68

Question: For “ACTCGGTCATGGACCGGTTTTCCCGGTAATCCGTATTTGTT (site ACTCGGTCTAA)”, which “recombinant UMI read abundance (log10)” value is on record?
Answer: 0.936

Question: With “ACTCGTGCATGGACCGGTTTTCCCGGTAATCCGTATTTGAC (site ACTCGTGCTGT)” as the sequence, how does the “recombinant UMI read abundance (log10)” value read?
Answer: 2.56

Question: Which “recombinant UMI read abundance (log10)” value does the source give for “ACTCGTGCATGGACCGGTTTTCCCGGTAATCCGTATTTGAG (site ACTCGTGCTCT)” here?
Answer: 1.4

Question: For “ACTCTTTCATGGACCGGTTTTCCCGGTAATCCGTATTTGTT (site ACTCTTTCTAA)”, which “recombinant UMI read abundance (log10)” value is on record?
Answer: 0.0432

Question: With “ACTGAGGCATGGACCGGTTTTCCCGGTAATCCGTATTTGAA (site ACTGAGGCTTT)” as the sequence, how does the “recombinant UMI read abundance (log10)” value read?
Answer: 1.73

Question: For “ACTGCAGCATGGACCGGTTTTCCCGGTAATCCGTATTTGCA (site ACTGCAGCTTG)”, which “recombinant UMI read abundance (log10)” value is on record?
Answer: 1.21

Question: For “ACTGTACCATGGACCGGTTTTCCCGGTAATCCGTATTTGCA (site ACAGTATCTTG)”, which “recombinant UMI read abundance (log10)” value is on record?
Answer: 0.00951

Question: Which “recombinant UMI read abundance (log10)” value does the source give for “ACTGTACCATGGACCGGTTTTCCCGGTAATCCGTATTTGCA (site ACTGTACCTTG)” here?
Answer: 0

Question: Which “recombinant UMI read abundance (log10)” value does the source give for “ACTGTGTCATGGACCGGTTTTCCCGGTAATCCGTATTTGAC (site AATGTGTCTGT)” here?
Answer: 0

Question: With “ACTGTGTCATGGACCGGTTTTCCCGGTAATCCGTATTTGAC (site ACTGTGTCTGT)” as the sequence, how does the “recombinant UMI read abundance (log10)” value read?
Answer: 0

Question: For “ACTGTGTCATGGACCGGTTTTCCCGGTAATCCGTATTTGAC (site AGTGTGTCTGT)”, which “recombinant UMI read abundance (log10)” value is on record?
Answer: 0

Question: For “ACTGTGTCATGGACCGGTTTTCCCGGTAATCCGTATTTGAC (site ATTGTGTCTGT)”, which “recombinant UMI read abundance (log10)” value is on record?
Answer: 0

Question: For “ACTTAATCATGGACCGGTTTTCCCGGTAATCCGTATTTGTA (site ACTTAATCTTA)”, which “recombinant UMI read abundance (log10)” value is on record?
Answer: 2.15

Question: For “ACTTAGTCATGGACCGGTTTTCCCGGTAATCCGTATTTGCC (site ACTTAGTCTGG)”, which “recombinant UMI read abundance (log10)” value is on record?
Answer: 2.47

Question: With “ACTTATGCATGGACCGGTTTTCCCGGTAATCCGTATTTGGA (site AATTATGCTTC)” as the sequence, how does the “recombinant UMI read abundance (log10)” value read?
Answer: 0.425

Question: For “ACTTATGCATGGACCGGTTTTCCCGGTAATCCGTATTTGGA (site ACTTATGCTTC)”, which “recombinant UMI read abundance (log10)” value is on record?
Answer: 1.41

Question: Which “recombinant UMI read abundance (log10)” value does the source give for “ACTTATGCATGGACCGGTTTTCCCGGTAATCCGTATTTGGA (site AGTTATGCTTC)” here?
Answer: 0.698

Question: For “ACTTATGCATGGACCGGTTTTCCCGGTAATCCGTATTTGGA (site ATTTATGCTTC)”, which “recombinant UMI read abundance (log10)” value is on record?
Answer: 0.623

Question: Which “recombinant UMI read abundance (log10)” value does the source give for “ACTTCCGCATGGACCGGTTTTCCCGGTAATCCGTATTTGTT (site ACTTCCGCTAA)” here?
Answer: 1.5

Question: Which “recombinant UMI read abundance (log10)” value does the source give for “ACTTCTCCATGGACCGGTTTTCCCGGTAATCCGTATTTGAT (site ACTTCTCCTAT)” here?
Answer: 0.78

Question: With “ACTTGAACATGGACCGGTTTTCCCGGTAATCCGTATTTGAG (site ACTAGAACTCT)” as the sequence, how does the “recombinant UMI read abundance (log10)” value read?
Answer: 0.0666

Question: For “ACTTGAACATGGACCGGTTTTCCCGGTAATCCGTATTTGAG (site ACTCGAACTCT)”, which “recombinant UMI read abundance (log10)” value is on record?
Answer: 0.999

Question: With “ACTTGAACATGGACCGGTTTTCCCGGTAATCCGTATTTGAG (site ACTGGAACTCT)” as the sequence, how does the “recombinant UMI read abundance (log10)” value read?
Answer: 1.23

Question: For “ACTTGAACATGGACCGGTTTTCCCGGTAATCCGTATTTGAG (site ACTTGAACTCT)”, which “recombinant UMI read abundance (log10)” value is on record?
Answer: 0.998

Question: With “AGAAACACATGGACCGGTTTTCCCGGTAATCCGTATTTGGT (site AGAAACACTAC)” as the sequence, how does the “recombinant UMI read abundance (log10)” value read?
Answer: 2.3

Question: With “AGAAAGACATGGACCGGTTTTCCCGGTAATCCGTATTTGCA (site AGAAAGACTTG)” as the sequence, how does the “recombinant UMI read abundance (log10)” value read?
Answer: 2.6
